Like-named read-outs stand apart in the source and are kept apart here. No end group written: not given here.
How the values were obtained:
[1] = tested on: Alternaria brassicola; assay type: cell-based; settings: A brassicola, 48 hours of incubation
[2] = tested on: Ascochyta pisi; assay type: cell-based; settings: A pisi, 48 hours of incubation
[3] = tested on: Botrytis cinerea; assay type: cell-based; settings: B cinerea, 48 hours of incubation
[4] = tested on: Colletotrichum lindemuthianum; assay type: cell-based; settings: C lindemuthianum
[5] = tested on: Fusarium culmorum; assay type: cell-based; settings: F culmorum, 48 hours of incubation
[6] = tested on: Fusarium oxysporum f.sp. pisi; assay type: cell-based; settings: 48 hours of incubation
[7] = tested on: Fusarium oxysporum f.sp. lycopersici; assay type: cell-based; settings: 48 hours of incubation
[8] = tested on: Nectria haematococca; assay type: cell-based; settings: N haematococca, 48 hours of incubation
[9] = tested on: Phoma betae; assay type: cell-based; settings: P betae, 48 hours of incubation
[10] = tested on: Pyrenophora tritici-repentis; assay type: cell-based; settings: P tritici-repentis, 48 hours of incubation
[11] = tested on: Pyricularia oryzae; assay type: cell-based
[12] = tested on: Verticillium dahliae; assay type: cell-based; settings: V dahliae, 48 hours of incubation
[13] = tested on: Venturia inaequalis; assay type: cell-based; settings: V inaequalis, 10 days of incubation
[14] = tested on: Cercospora beticola; test: Foliar diseases in vivo test, protectant foliar spray; settings: C beticola on sugarbeet, foliar spray 100 μg/ml
Procedure: The plants were grown in John Innes Potting Compost (No 1 or 2) in 4 cm diameter mini-pots. The protein preparation was formulated immediately prior to use by dissolving in sterile deionised water and diluting to the appropriate concentration. It is assumed that the protein extract contains approximately 1% active ingredient. A pure sample of Mj-AMP1 was similarly prepared. The formulations were applied to the plants as a foliar spray. The spray was applied to maximum discrete droplet retention. Tween 20, to give a final concentration of 0.05%, was added when the spray was applied to cereals. The protein preparation was applied to the foliage (by spraying) one or two days before the plant was inoculated with the disease (protectant application). […] After inoculation, the plants were put into an appropriate environment to allow infection to proceed and then incubated until the disease was ready for assessment. […]
Results are shown in Table 3 for the three fungal pathogens: Septoria nodorum (Fungi Imperfecti) tested on wheat, Plasmopara viticola (Phycomycete) tested on grapevine, and Cercospora beticola tested on sugarbeet. The disease control was recorded by the following grading: 4=no disease; 3=trace-5% of disease on untreated plants; 2=6-25% of disease on untreated plants; 1=26-60% of disease on untreated plants; 0=61-100% of disease on untreated plants.

[15] = tested on: Saccharomyces cerevisiae; test: Inhibitory activity against yeast; assay type: cell-based; parameters: key: +++:complete inhibition; +:some inhibition; -:no inhibition
Procedure: The inhibitory activity of Mj-AMPs against yeast, Saccharomyces cerevisiae was tested. The results shown in Table 5 indicate that Mj-AMPs do inhibit the growth of yeast at concentrations of 500 μg/ml or above.

[16] = tested on: Bacillus megaterium; test: Antibacterial activity in vitro test; assay type: cell-based; settings: B megaterium, 48 hours
Procedure: (§1) The antibacterial activity of the Mj-AMPs was tested against a range of gram-positive and gram-negative bacteria: Bacillus megaterium, Sarcina lutea, Escherichia coli and Erwinia carotovora. β-purothionin and UDA were also tested for comparison (see Example 7). Tests were performed in soft agarose medium containing 1% tryptone and, with or without 1 mM CaCl2 and 50 mM KCl. Absorbance, 595 nm, of the culture was measured after 48 hours.

[17] = tested on: Erwinia carotovora; test: Antibacterial activity in vitro test; assay type: cell-based; settings: E carotovora, 48 hours
Procedure: as §1

[18] = tested on: Escherichia coli; test: Antibacterial activity in vitro test; assay type: cell-based; settings: E coli, 48 hours
Procedure: as §1

[19] = tested on: Sarcina lutea; test: Antibacterial activity in vitro test; assay type: cell-based; settings: S lutea, 48 hours
Procedure: as §1

[20] = Isoelectric focusing; assay type: physicochemical; settings: isoelectric focusing on Immobiline Dry Strips
Procedure: PAS staining for glycoproteins was done by the method of Zacharius, RM et al (1969; Anal Biochem, 30, 148-152) using ovalbumin (3.2% carbohydrate) as a positive control sample. The pI values of Mj-AMP1 and Mj-AMP2 were determined by isoelectric focusing and found to be about 10.5 for both proteins. Isoelectric focussing was done on precast Immobiline Dry Strips (Pharmacia) using marker proteins in the pI range from 4.7 to 10.6 (Pharmacia).

[21] = MEDIUM +Ca/K (1 mM CaCl2 and 50 mM KCl)

Substance: Mj-AMP1: antimicrobial protein from Mirabilis jalapa seeds, dimer of two 4 kDa subunits, 37 residues, SEQ ID NO:1 (QCIGNGGRCNENVGPPYCCSGFCLRQPGQGYGYCKNR; cysteine pairing not given here; also: homodimer)
- IC50 [1]: 20 µg/mL
- IC50 [2]: 200 µg/mL
- IC50 [3]: 60 µg/mL
- IC50 ([4]; 48 hours of incubation): 6 µg/mL
- IC50 ([4]; after 72 hours): 12 µg/mL
- IC50 [5]: 30 µg/mL
- IC50 [6]: 15 µg/mL
- IC50 [7]: 200 µg/mL
- IC50 [8]: 15 µg/mL
- IC50 [9]: 25 µg/mL
- IC50 [10]: 300 µg/mL
- IC50 [11]: 6 µg/mL
- IC50 [12]: 12 µg/mL
- IC50 [13]: 12 µg/mL
- Disease control grading [14]: 3 (3=trace-5% of disease on untreated plants)
- Inhibitory activity against yeast ([15]; with Ca/K, 5 μg/ml): -
- Inhibitory activity against yeast ([15]; with Ca/K, 50 μg/ml): -
- Inhibitory activity against yeast ([15]; with Ca/K, 500 μg/ml): +++
- Inhibitory activity against yeast ([15]; without Ca/K, 5 μg/ml): +
- Inhibitory activity against yeast ([15]; without Ca/K, 50 μg/ml): +++
- Inhibitory activity against yeast ([15]; without Ca/K, 500 μg/ml): +++
- IC50 [16, 21]: 20 µg/mL
- IC50 ([16]; MEDIUM -Ca/K): 6 µg/mL
- IC50 [17, 21]: > 500 µg/mL
- IC50 ([17]; MEDIUM -Ca/K): > 500 µg/mL
- IC50 [18, 21]: > 500 µg/mL
- IC50 ([18]; MEDIUM -Ca/K): > 500 µg/mL
- IC50 [19, 21]: > 500 µg/mL
- IC50 ([19]; MEDIUM -Ca/K): 100 µg/mL
- pI [20]: about 10.5
